Results taken from the NIST ThermoML archive (doi:10.1016/j.jct.2010.10.016).

Assays:
[1] = xn = mol fraction of the nth substance listed; settings: 101 kPa, Liquid; for viscosity: Capillary tube (Ostwald / Ubbelohde) method; for mass density: Pycnometric method; for speed of sound: Resonance method
[2] = relative permittivity at various frequencies (dimensionless); xn = mol fraction of the nth substance listed; settings: 101 kPa, Liquid, Frequency=3 MHz, AC method

COCCO [2-methoxyethan-1-ol] + C[N+](=O)[O-]
x2 = 0
Settings | mass density, [1] [kg/m3] | relative permittivity, [2] | speed of sound, [1] [m/s] | viscosity, [1] [mPa·s]
293.15 K | 964.88 | 17.38 | 1359.3 | 1.708
298.15 K | 960.29 | 16.96 | 1342.1 | 1.544
303.15 K | 955.77 | 16.56 | 1325.1 | 1.404
308.15 K | 951.19 | 16.16 | 1313.5 | 1.246
313.15 K | 946.21 | 15.77 | 1296.8 | 1.098

C[N+](=O)[O-] [nitromethane] + CCCCOCCO
x1 = 1
Settings | mass density, [1] [kg/m3] | relative permittivity, [2] | speed of sound, [1] [m/s] | viscosity, [1] [mPa·s]
293.15 K | 1137.63 | 37.31 | 1340.2 | 0.648
298.15 K | 1130.62 | 36.52 | 1320.4 | –
298.45 K | – | – | – | 0.619
303.15 K | 1123.6 | 35.66 | 1298.1 | 0.584
308.15 K | 1116.86 | 34.92 | 1281.2 | 0.563
313.15 K | 1109.87 | 34.09 | 1262.8 | 0.545
